PMC10793205, “Differential transmetallation of complexes of the anti-cancer thiosemicarbazone, Dp4e4mT: effects on anti-proliferative efficacy, redox activity, oxy-myoglobin and oxy-hemoglobin oxidation” (Chemical Science, 2023)
“Also recorded” adds a separate entry of the source.

Assays:
[1] = target: T1, oxy-Hb in intact human erythrocytes (Homo sapiens, UniProt P68871+P69905); test: Oxidation of oxy-Hb in intact human erythrocytes; type: cell-based; settings: 10 μM, 3 h/37 °C
T1 construct: Physiologically, oxy-Hb is found in erythrocytes; endogenous in cells; host or cells: intact human erythrocytes from fresh blood of healthy donors
Experimental: Fig. 7 (A and B) Investigation of the effects of Dp4e4mT and its Fe(III), Co(III), Ni(II), Cu(II), Zn(II), Ga(III), and Pd(II) complexes versus DFO, Dp44mT, DpC and their Fe(III) complexes (10 μM) on met-Hb generation (% zero time) after an incubation of 1–3 h/20 °C with purified oxy-Hb (40 μM). (C) Investigation of the effects of Dp4e4mT and its Fe(III), Co(III), Ni(II), Cu(II), Zn(II), Ga(III), or Pd(II) complexes relative to the positive controls DFO, Dp44mT, DpC, and their Fe(III) complexes (10 μM) on oxy-Hb oxidation in intact human erythrocytes after a 3 h/37 °C incubation. Results are mean ± SD (3 experiments).
Physiologically, oxy-Hb is found in erythrocytes, and in the current investigation, the ligands and complexes (10 μM) were incubated with intact human erythrocytes for 3 h/37 °C to assess their effects on oxy-Hb oxidation (Fig. 7C). As expected from our previous studies,[28,39] […]
In experiments examining the activity of the agents, all complexes were dissolved in 1,2-propanediol, then diluted to 10 µM in PBS (pH 7.2). […]
1800; Shimadzu, Kyoto, Japan). Concentrations of met-Mb and met-Hb, as well as reduced-Mb and reduced-Hb, were determined at 409 nm and 435 nm, respectively. Concentrations of oxy-Mb and oxy-Hb were determined at 544 nm and 582 nm, respectively. 17 Oxidation of Oxy-Hb in Human Erythrocytes
Oxidation of oxy-Hb in human erythrocytes was performed by standard methods using fresh blood from healthy donors after collection in Vacutainer® collection tubes (BD, Plymouth, UK).8 Erythrocytes centrifuged (480 xg/5 min/4°C) and then washed in HBSS, and subsequently resuspended in this buffer. Incubation of the erythrocytes (15% hematocrit) in the absence or presence of the agents (10 μM) was performed for 3 h/37°C. The erythrocytes were […]

[2] = Cyclic voltammetry (redox potentials); type: physicochemical; settings: 1 mM in MeCN/H2O 7 : 3 (v/v) + 0.1 M Et4NClO4, sweep rate 100 mV s^−1
Text: The redox potentials of Fe(III)- and Cu(II)-thiosemicarbazone complexes have been extensively studied and are important for understanding intracellular redox activity and ROS generation.[23,27,28,42] Considering this, the electrochemical properties of [Fe(Dp44mT)2]^+, [Fe(DpC)2]^+, [Fe(Dp4e4mT)2]^+, [Co(Dp4e4mT)2]^+, [Ni(Dp4e4mT)2], [Cu(Dp4e4mT)Cl], [Ga(Dp4e4mT)2]^+, and [Pd(Dp4e4mT)Cl] were investigated with cyclic voltammetry in MeCN : H2O (70 : 30 v/v; Fig. 4A and B). This solvent system was implemented to provide sufficient solubility and because it has been used by our laboratories previously to measure potentials of thiosemicarbazone complexes enabling effective comparison.[28,45,57–59]
Fig. 4 Cyclic voltammograms of: (A) [Fe(Dp44mT)2]^+, [Fe(DpC)2]^+, and [Fe(Dp4e4mT)2]^+. (B) [Co(Dp4e4mT)2]^+, [Ni(Dp4e4mT)2], [Cu(Dp4e4mT)Cl], [Ga(Dp4e4mT)2]^+, and [Pd(Dp4e4mT)Cl] (1 mM in MeCN/H2O 7 : 3 (v/v) + 0.1 M Et4NClO4) at a sweep rate of 100 mV s^−1. The voltammograms were recorded using a glassy carbon working electrode versus a […] (NHE). […]
Cyclic voltammograms were acquired for the Fe(III), Co(III), Ni(II), Cu(II), Ga(III), and Pd(II) complexes of Dp4e4mT utilizing a BAS100B/W potentiostat, equipped with an aqueous Ag/AgCl reference electrode, a glassy carbon working electrode, and a Pt wire auxiliary […]
electrode. […]

[3] = target: T2, oxy-Mb (Homo sapiens, UniProt P02144); test: Oxidation of purified oxy-Mb to met-Mb (UV-vis); type: biochemical; settings: 10 μM agent, oxy-Mb 40 μM, 3 h incubation, 20 °C
T2 sequence (P02144 1-154): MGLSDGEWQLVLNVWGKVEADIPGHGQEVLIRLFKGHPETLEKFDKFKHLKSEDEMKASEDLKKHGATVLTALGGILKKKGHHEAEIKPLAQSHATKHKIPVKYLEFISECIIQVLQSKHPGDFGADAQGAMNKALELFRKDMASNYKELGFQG
Text: As such, it was important to examine the effect of the Dp4e4mT complexes on oxy-Hb and oxy-Mb oxidation (Fig. 6 and 7). Comparisons were made to three controls, namely DFO, Dp44mT, and DpC, as well as their Fe(III) complexes. […] In contrast, the Fe(III) complexes of Dp44mT and DpC were positive controls, as they induce oxidation of oxy-Mb.[28,39,42]
Fig. 6 (A and B) Investigation of the effects of Dp4e4mT and its Fe(III), Co(III), Ni(II), Cu(II), Zn(II), Ga(III), and Pd(II) complexes versus the positive controls DFO, Dp44mT, DpC and their Fe(III) complexes (10 μM) on met-Mb generation (% zero time) after an incubation of 1–3 h/20 °C with purified oxy-Mb (40 μM). Results are mean ± SD (3 experiments).
Spectroscopic Examination of Met-Mb and Met-Hb Formation from Oxy-Mb and Oxy- […]
Oxy-Mb and oxy-Hb solutions were prepared following established protocols.8, 17 In brief, solutions of reduced Mb and Hb in PBS (pH 7.2) were prepared by adding 1.2 mL of Na2S2O4 (12 mM) to 38 mL of met-Mb and met-Hb solution (40 μM). 17 Subsequently, oxy-Mb and oxy-Hb were generated by gently passing 150 mL of oxygen (from an air-filled syringe) through the solution containing reduced Mb and Hb, effectively eliminating any residual Na2S2O4. Following this, the oxy-Mb and oxy-Hb solutions were passed through a PD-10 column prepacked with 8.3 mL of Sephadex G-25 and equilibrated with PBS (pH 7.2). 17 In experiments examining the activity of the agents, all complexes were dissolved in 1,2-propanediol, then diluted to 10 µM in PBS (pH 7.2). The experiments were conducted over incubations of 0 to 3 h with the agents. UV-Vis spectra covering the range of 300 to 700 nm were recorded at a temperature of 20°C using a Shimadzu UV−Vis spectrophotometer (UV-1800; Shimadzu, Kyoto, Japan). Concentrations of met-Mb and met-Hb, as well as reduced-Mb and reduced-Hb, were determined at 409 nm and 435 nm, respectively. Concentrations of oxy-Mb and oxy-Hb were determined at 544 nm and 582 nm, respectively. 17

[4] = test system: H2DCF; test: Redox activity: H2DCF oxidation to DCF (cell-free, L-cysteine/H2O2); type: biochemical; settings: 10 μM, pH 7.4 and pH 5, no added CuCl2
Experimental: Redox activity in cells was examined using an established in vitro method examining 2′,7′-dichlorodihydrofluorescein (H2DCF) oxidation to fluorescent 2′,7′-dichlorofluorescein (DCF) at cytosolic pH (pH 7.4 using HBSS buffer) relative to lysosomal pH (pH 5; acetate buffer; Fig. 5).[25,26,28,42,46] To these buffers containing the complexes, L-cysteine (100 μM) was added as a reducing agent, followed by H2DCF (5 μM). Then, hydrogen peroxide (H2O2; 100 μM) was added to initiate hydroxyl radical generation. Both [Cu(DpC)Cl2] and [Cu(DpC)2] were used as positive controls due to their documented redox activity.[28,42] In contrast, the ligand, DpC, was implemented as a negative control, as it is redox inert.[28,42] As an additional control, the established Cu chelator, tetrathiomolybdate (TM), was utilized to remove Cu from the thiosemicarbazone complexes to indicate its role in their redox activity.[27,28,42] Additionally, UV-vis spectroscopy (300–700 nm) of the same solution for each complex was also performed to understand both the oxidation of H2DCF and the formation of fluorescent DCF upon excitation at 503 nm (Fig. S20A–F and S21A–F ^†). […]
ROS Generation Analysis with H 2DCF-DA
The generation of reactive oxygen species (ROS) was assessed by examining the oxidation of H2DCF.2, 8, 13, 14 Solutions containing CuCl2, TM, DpC, Dp4e4mT, [Fe(DpC)2]+, [Cu(DpC)Cl2], [Cu(DpC)2] and the Dp4e4mT complexes were prepared at a concentration of 10 µM in either HBSS (pH 7.4) or 150 mM acetate buffer (pH 5) to simulate the conditions of the cytosol and lysosome, respectively.2, 8, 14, 15 The H2DCF was prepared by deacetylation of DCFH-DA (Sigma-Aldrich) through alkaline hydrolysis using NaOH. 16
In these prepared solutions, L-cysteine (100 µM) was added as a reducing agent and then H2DCF (5 µM) added. The initiation of hydroxyl radical generation was achieved by the addition of hydrogen peroxide (H2O2; 100 µM). As a comparative benchmark, HBSS or acetate buffer containing L-cysteine, H2DCF, and H2O2, but lacking ligands or metal complexes, was employed as a control. Fluorescence measurements were carried out using a CLARIOstar Plus microplate reader (BMG LABTECH, Australia) with an excitation wavelength of 485 nm and an emission wavelength of 530 nm. 8, 14

T1 sequence (P69905 2-142 limits assumed): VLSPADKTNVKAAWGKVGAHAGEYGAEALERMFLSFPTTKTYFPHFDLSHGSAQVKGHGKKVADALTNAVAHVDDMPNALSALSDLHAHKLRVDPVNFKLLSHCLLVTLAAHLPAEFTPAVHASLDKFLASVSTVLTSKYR
T1 sequence (P68871 2-147 limits assumed): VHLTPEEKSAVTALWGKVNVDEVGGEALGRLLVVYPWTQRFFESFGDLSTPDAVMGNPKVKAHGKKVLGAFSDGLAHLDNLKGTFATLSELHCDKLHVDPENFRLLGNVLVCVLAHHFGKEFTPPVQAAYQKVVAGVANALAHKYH

Row | SMILES | oxy-Hb oxidation in erythrocytes versus the control (in words) [1] | Redox potential (mV vs. NHE) [2] | oxy-Mb oxidation (met-Mb generation) [3] | DCF fluorescence (H2DCF oxidation) of agent alone [4] | other results
1 | CC(=O)N([O-])CCCCCNC(=O)CCC(=O)N([O-])CCCCCNC(=O)CCC(=O)N([O-])CCCCCN.[Fe+3] [DFO Fe(III) complex, reference compound] | did not induce any significant (p > 0.05) increase in oxy-Hb oxidation | – | – | – | –
2 | CN(C)C([S-])=NN=C(c1ccccn1)c1ccccn1.CN(C)C([S-])=NN=C(c1ccccn1)c1ccccn1.[Fe+3] [[Fe(Dp44mT)2]^+, reference compound] | – | +166 mV vs. NHE | 222 % of the control | – | oxy-Hb oxidation to met-Hb in erythrocytes ([1]; control 0.5%): 34.4 % of the total
3 | [SH-].[SH-].[S]=[Mo]=[S] [TM, tetrathiomolybdate, reference compound] | – | – | – | did not significantly (p > 0.05) increase DCF fluorescence | –
4 | [Cl][Cu][Cl] [CuCl2, reference compound] | – | – | – | significantly (p < 0.0001–0.01) increased DCF fluorescence | –
5 | CN(C([S-])=NN=C(c1ccccn1)c1ccccn1)C1CCCCC1.CN(C([S-])=NN=C(c1ccccn1)c1ccccn1)C1CCCCC1.[Fe+3] [[Fe(DpC)2]^+, reference compound] | did not induce any significant (p > 0.05) increase in oxy-Hb oxidation | +149 mV vs. NHE | 161 % of the control | – | –
6 | CN(C(=S)NN=C(c1ccccn1)c1ccccn1)C1CCCCC1.[Cl-].[Cl-].[Cu+2] [[Cu(DpC)Cl2], reference compound] | – | – | – | significantly (p < 0.0001–0.01) increased DCF fluorescence; also recorded: greatest efficacy at increasing DCF fluorescence | –
